Values of other authors, collected in US20130303466A1, “Chemosensory Receptor Ligand-Based Therapies” (ELCELYX THERAPEUTICS, INC., priority 2010, published 2013).

biological target: T1, sweet receptor (Homo sapiens, UniProt Q7RTX0+Q8TE23); conditions: relative sweetness on a weight comparison basis to sucrose (= 1.0); ranges: relative sweetness varied with the concentration of sucrose; adapted from Kim et al., 2002
T1 sequence (Q8TE23 20-839): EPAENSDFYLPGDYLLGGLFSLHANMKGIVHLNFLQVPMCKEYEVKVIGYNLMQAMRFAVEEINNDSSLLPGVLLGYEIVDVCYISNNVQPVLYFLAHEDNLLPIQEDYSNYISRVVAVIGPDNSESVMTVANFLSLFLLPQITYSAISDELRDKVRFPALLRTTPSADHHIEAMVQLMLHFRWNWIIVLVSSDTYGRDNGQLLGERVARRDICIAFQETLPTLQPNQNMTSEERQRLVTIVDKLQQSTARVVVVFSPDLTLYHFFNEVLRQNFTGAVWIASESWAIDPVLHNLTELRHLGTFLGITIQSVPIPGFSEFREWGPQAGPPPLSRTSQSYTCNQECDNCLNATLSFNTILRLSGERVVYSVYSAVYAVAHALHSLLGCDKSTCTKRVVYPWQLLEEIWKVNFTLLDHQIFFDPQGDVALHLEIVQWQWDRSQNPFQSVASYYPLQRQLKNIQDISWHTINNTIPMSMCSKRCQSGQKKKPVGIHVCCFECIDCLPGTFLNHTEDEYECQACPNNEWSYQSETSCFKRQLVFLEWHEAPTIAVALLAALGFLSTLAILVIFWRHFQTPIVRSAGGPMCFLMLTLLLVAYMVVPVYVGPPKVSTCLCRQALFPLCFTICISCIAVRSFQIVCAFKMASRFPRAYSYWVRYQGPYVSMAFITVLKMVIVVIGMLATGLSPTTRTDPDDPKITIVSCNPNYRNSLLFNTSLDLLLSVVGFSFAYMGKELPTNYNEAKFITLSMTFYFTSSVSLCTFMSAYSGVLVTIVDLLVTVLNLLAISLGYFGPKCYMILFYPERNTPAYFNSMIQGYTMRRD
T1 sequence (Q7RTX0 21-852): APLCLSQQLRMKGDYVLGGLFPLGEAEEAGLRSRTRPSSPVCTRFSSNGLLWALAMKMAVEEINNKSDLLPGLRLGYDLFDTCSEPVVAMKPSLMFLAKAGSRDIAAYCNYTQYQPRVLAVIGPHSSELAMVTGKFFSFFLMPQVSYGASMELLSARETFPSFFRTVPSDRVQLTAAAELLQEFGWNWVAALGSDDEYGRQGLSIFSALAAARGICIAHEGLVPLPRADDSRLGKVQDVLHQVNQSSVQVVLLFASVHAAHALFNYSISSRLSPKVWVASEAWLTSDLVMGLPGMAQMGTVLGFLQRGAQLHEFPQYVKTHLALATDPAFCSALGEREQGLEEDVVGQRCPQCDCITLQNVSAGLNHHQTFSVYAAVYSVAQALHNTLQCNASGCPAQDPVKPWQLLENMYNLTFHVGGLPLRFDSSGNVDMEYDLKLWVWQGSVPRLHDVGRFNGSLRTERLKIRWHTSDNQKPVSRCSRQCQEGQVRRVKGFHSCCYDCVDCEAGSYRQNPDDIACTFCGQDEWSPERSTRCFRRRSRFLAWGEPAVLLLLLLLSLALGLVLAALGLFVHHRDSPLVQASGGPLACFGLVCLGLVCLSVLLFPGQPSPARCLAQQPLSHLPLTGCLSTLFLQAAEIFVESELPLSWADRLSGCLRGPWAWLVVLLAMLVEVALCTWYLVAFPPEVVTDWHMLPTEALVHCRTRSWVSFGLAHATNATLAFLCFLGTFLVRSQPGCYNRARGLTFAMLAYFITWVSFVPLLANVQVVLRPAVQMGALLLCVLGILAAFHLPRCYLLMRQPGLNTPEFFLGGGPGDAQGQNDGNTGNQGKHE

| Compound | Sweetness/potency |
| --- | --- |
| Carnosifloside V [Carnosifloside V (35)] | 51 |
| Baiyunoside [Baiyunoside (30)] | 500 |
| CC1(C)C[C@H]2C3=CC[C@@H]4[C@@]5(C)CC[C@H](O[C@@H]6O[C@H](CO[C@@H]7OC[C@H](O)[C@H](O)[C@H]7O[C@@H]7OC[C@@H](O)[C@H](O)[C@H]7O)[C@@H](O)[C@H](O)[C@H]6O)C(C)(C)[C@@H]5CC[C@@]4(C)[C@]3(C)C[C@@H](O)[C@@]23C[C@@H]1OC3=O [Albiziasaponin A (50), Albiziasaponin A] | 5 |
| CC1(C)[C@@H](O[C@@H]2O[C@H](C(=O)O)[C@@H](O)[C@H](O)[C@H]2O[C@@H]2O[C@H](C(=O)O)[C@@H](O)[C@H](O)[C@H]2O)CC[C@]2(C=O)[C@H]3CC[C@@H]4C5=C[C@@](C)(C(=O)O)CC[C@]5(C)CC[C@@]4(C)[C@]3(C)CC[C@@H]12 [Periandrin I (57), Periandrin I] | 90 |
| Thaumatin | 1,600 |
| Dulcoside A [Dulcoside A (15)] | 30 |
| C=C1C[C@@]23CC[C@H]4[C@@](C)(CCC[C@@]4(C)C(=O)O[C@@H]4O[C@H](CO)[C@@H](O)[C@H](O)[C@H]4O)[C@@H]2CC[C@]1(O[C@@H]1O[C@H](CO)[C@@H](O)[C@H](O)[C@H]1O[C@@H]1O[C@H](CO)[C@@H](O)[C@H](O)[C@H]1O)C3 [Stevioside (5), Stevioside] | 210 |
| Monellin | 3,000 |
| Oc1cc2c(cc1O)[C@@H]1c3ccc(O)c(O)c3OC[C@]1(O)C2 [Hematoxylin (99), Hematoxylin] | 120 |
| COC(=O)[C@H]1O[C@@H](O[C@H]2[C@H](O[C@H]3CC[C@]45C[C@]46CC[C@]4(C)[C@@H]([C@H](C)[C@@H]7CC=C(C)C(=O)O7)CC[C@@]4(C)[C@@H]6CC[C@H]5[C@]3(C)C(=O)O)O[C@H](CO)[C@@H](O)[C@@H]2O)[C@H](O)[C@@H](O)[C@@H]1O [Abrusoside B (43), Abrusoside B] | 100 |
| Brazzein: sweet protein from Pentadiplandra brazzeana Baillon (QDKCKKVYENYPVSKCQLANQCNYDCKLDKHARSGECFYDEKRNLQCICDYCEY; UniProt P56552 1-54, looked up) | 2,000 |
| O=C/C=C/c1ccccc1 [Trans-Cinnamaldehyde (79), Trans-Cinnamaldehyde] | 50 |
| COc1c(O)cc2c(c1O)C(=O)[C@H](OC(C)=O)[C@@H](c1ccc(O)c(O)c1)O2 [(2R,3R)-2,3-Dihydro-5,7,3′,4′-tetrahydroxy-6-methoxy-3-O-acetylflavonol] | 25 |
| Scandenoside R6 [Scandenoside R6 (39)] | 54 |
| Periandrin IV [Periandrin IV (60)] | 85 |
| Rebaudioside C [Rebaudioside C (17)] | 30 |
| Rebaudioside B [Rebaudioside B (16)] | 150 |

system: GLP-1; conditions: rats; with administration of a DPP-IV inhibitor

| Compound | increase in GLP-1 |
| --- | --- |
| OCCN1C[C@H](O)[C@@H](O)[C@H](O)[C@H]1CO [miglitol] | synergistic |

system: gut hormone release; conditions: humans, instillation into the duodenum

| Compound | gut hormone release |
| --- | --- |
| OC[C@H]1O[C@H](O[C@]2(CCl)O[C@H](CCl)[C@@H](O)[C@@H]2O)[C@H](O)[C@@H](O)[C@H]1Cl [sucralose] | no effect |
